{"source": "patent US10159726B2", "about": "“Peptides, combination of peptides and scaffolds for use in immunotherapeutic treatment of various cancers” (Immatics Biotechnologies GmbH, priority 2015, dated 2018)"}
{"system": "CD8+ T cells of healthy HLA-A*24+ donor", "experiment": "In vitro T-cell priming (immunogenicity) with aAPCs loaded with HLA-A*24 peptide/MHC and anti-CD28, multimer readout", "assay_type": "cell-based, human", "conditions": "HLA-A*24 peptides; in vitro priming, multimer readout", "method": "In order to obtain information regarding the immunogenicity of the TUMAPs of the present invention, the inventors performed investigations using an in vitro T-cell priming assay based on repeated stimulations of CD8+ T cells with artificial antigen presenting cells (aAPCs) loaded with peptide/MHC complexes and anti-CD28 antibody.\nPBMCs and isolated CD8+ lymphocytes were incubated in T-cell medium (TCM) until use consisting of RPMI-Glutamax (Invitrogen, Karlsruhe, Germany) supplemented with 10% heat inactivated human AB serum (PAN-Biotech, Aidenbach, Germany), 100 U/ml Penicillin/100 μg/ml Streptomycin (Cambrex, Cologne, Germany), 1 mM sodium pyruvate (CC Pro, Oberdorla, Germany), 20 μg/ml Gentamycin (Cambrex). 2.5 ng/ml IL-7 (PromoCell, Heidelberg, Germany) and 10 U/ml IL-2 (Novartis Pharma, Nürnberg, Germany) were also added to the TCM at this step.\nGeneration of pMHC/anti-CD28 coated beads, T-cell stimulations and readout was performed in a highly defined in vitro system using four different pMHC molecules per stimulation condition and 8 different pMHC molecules per readout condition.\nThe purified co-stimulatory mouse IgG2a anti human CD28 Ab 9.3 (Jung et al., 1987) was chemically biotinylated using Sulfo-N-hydroxysuccinimidobiotin as recommended by the manufacturer (Perbio, Bonn, Germany). Beads used were 5.6 μm diameter streptavidin coated polystyrene particles (Bangs Laboratories, Illinois, USA).\n800.000 beads/200 μl were coated in 96-well plates in the presence of 4×12.5 ng different biotin-pMHC, washed and 600 ng biotin anti-CD28 were added subsequently in a volume of 200 μl. Stimulations were initiated in 96-well plates by co-incubating […] CD8+ T cells with 2×10^5 washed coated beads in 200 μl TCM supplemented with 5 ng/ml IL-12 (PromoCell) for 3 days at 37° C. Half of the medium was then exchanged by fresh TCM supplemented with 80 U/ml IL-2 and incubating was continued for 4 days at 37° C. This stimulation cycle was performed for a total of three times. For the pMHC multimer readout using 8 different pMHC molecules per condition, a two-dimensional combinatorial coding approach was used as previously described (Andersen et al., 2012) with minor modifications encompassing coupling to 5 different fluorochromes. Finally, multimeric analyses were performed by staining the cells with Live/dead near IR dye (Invitrogen, Karlsruhe, Germany), CD8-FITC antibody clone SK1 (BD, Heidelberg, Germany) and fluorescent pMHC multimers. For analysis, a BD LSRII SORP cytometer equipped with appropriate lasers and filters was used. Peptide specific cells were calculated as percentage of total CD8+ cells. Evaluation of multimeric analysis was done using the FlowJo software (Tree Star, Oregon, USA). In vitro priming of specific multimer+ CD8+ lymphocytes was detected by comparing to negative control stimulations.\nExemplary flow cytometry results after TUMAP-specific multimer staining for 2 peptides of the invention are shown in FIG. 3 together with corresponding negative controls. Exemplary flow cytometry results after TUMAP-specific multimer staining for 7 peptides of the invention are shown in FIGS. 4 and 5 together with corresponding negative controls."}
{"substance": "363 (SYAELGTTI; listed as Homo sapiens) [compound 363]", "in vitro immunogenicity, Wells positive [%]": "+ (<20% = +)"}
{"substance": "142 (VYVDDIYVI; listed as Homo sapiens) [compound 142]", "in vitro immunogenicity, Wells positive [%]": "++++ (>=70% = ++++)"}
{"substance": "103 (NYIPVKNGKQF; listed as Homo sapiens) [compound 103]", "in vitro immunogenicity, Wells positive [%]": "+ (<20% = +)"}
{"substance": "162 (KYTSYILAF; listed as Homo sapiens) [compound 162]", "in vitro immunogenicity, Wells positive [%]": "+ (<20% = +)"}
{"substance": "174 (VYEKNGYIYF; listed as Homo sapiens) [compound 174]", "in vitro immunogenicity, Wells positive [%]": "++++ (>=70% = ++++)"}
{"substance": "180 (KYLQVVGMF; listed as Homo sapiens) [compound 180]", "in vitro immunogenicity, Wells positive [%]": "+ (<20% = +)"}
{"substance": "106 (IYNETVRDLL; listed as Homo sapiens) [compound 106]", "in vitro immunogenicity, Wells positive [%]": "+ (<20% = +)"}
{"substance": "158 (IYEETRGVLKVF; listed as Homo sapiens) [compound 158]", "in vitro immunogenicity, Wells positive [%]": "+ (<20% = +)"}
{"substance": "157 (DYIPASGFALF; listed as Homo sapiens) [compound 157]", "in vitro immunogenicity, Wells positive [%]": "+ (<20% = +)"}
{"substance": "115 (RYLNKSFVL; listed as Homo sapiens) [compound 115]", "in vitro immunogenicity, Wells positive [%]": "+ (<20% = +)"}
{"substance": "177 (VYFKAGLDVF; listed as Homo sapiens) [compound 177]", "in vitro immunogenicity, Wells positive [%]": "+ (<20% = +)"}
{"substance": "111 (VYVQILQKL; listed as Homo sapiens) [compound 111]", "in vitro immunogenicity, Wells positive [%]": "+ (<20% = +)"}
{"substance": "105 (IYNETITDLL; listed as Homo sapiens) [compound 105]", "in vitro immunogenicity, Wells positive [%]": "+ (<20% = +)"}
{"substance": "358 (YYSEVPVKL; listed as Homo sapiens) [compound 358]", "in vitro immunogenicity, Wells positive [%]": "++++ (>=70% = ++++)"}
{"substance": "354 (VYNEQIRDLL; listed as Homo sapiens) [compound 354]", "in vitro immunogenicity, Wells positive [%]": "+ (<20% = +)"}
{"system": "HLA-A*24", "experiment": "MHC binding assay, UV-ligand exchange with beta2m ELISA, HLA-A*24", "design": "species or system human", "conditions": "binding to HLA-A*24, UV-ligand exchange, β2m ELISA", "text": "Candidate peptides for T cell based therapies according to the present invention were further tested for their MHC binding capacity (affinity). The individual peptide-MHC complexes were produced by UV-ligand exchange, where a UV-sensitive peptide is cleaved upon UV-irradiation, and exchanged with the peptide of interest as analyzed. Only peptide candidates that can effectively bind and stabilize the peptide-receptive MHC molecules prevent dissociation of the MHC complexes. To determine the yield of the exchange reaction, an ELISA was performed based on the detection of the light chain (β2m) of stabilized MHC complexes. The assay was performed as generally described in Rodenko et al. (Rodenko et al., 2006).\n96 well MAXISorp plates (NUNC) were coated over night with 2 ug/ml streptavidin in PBS at room temperature, washed 4× and blocked for 1 h at 37° C. in 2% BSA containing blocking buffer. […] Peptide-MHC monomers of the UV-exchange reaction were diluted 100 fold in blocking buffer. Samples were incubated for 1 h at 37° C., washed four times, incubated with 2 ug/ml HRP conjugated anti-β2m for 1 h at 37° C., washed again and detected with TMB solution that is stopped with […]. Absorption was measured at 450 nm. Candidate peptides that show a high exchange yield (preferably higher than 50%, most preferred higher than 75%) are generally preferred for a generation and production of antibodies or fragments thereof, and/or T cell receptors or fragments thereof, as they show sufficient avidity to the MHC molecules and prevent dissociation of the MHC complexes."}
{"substance": "276 (QYLDVLHAL; listed as Homo sapiens) [compound 276]", "Peptide exchange (MHC class I binding score, peptide exchange yield)": "++++ (>=75% = ++++)"}
{"substance": "292 (FYPQIINTF; listed as Homo sapiens) [compound 292]", "Peptide exchange (MHC class I binding score, peptide exchange yield)": "++++ (>=75% = ++++)"}
{"substance": "311 (EYLQNLNHI; listed as Homo sapiens) [compound 311]", "Peptide exchange (MHC class I binding score, peptide exchange yield)": "++++ (>=75% = ++++)"}
{"substance": "97 (TYTFLKETF; listed as Homo sapiens) [compound 97]", "Peptide exchange (MHC class I binding score, peptide exchange yield)": "++++ (>=75% = ++++)"}
{"substance": "264 (LYTETRLQF; listed as Homo sapiens) [compound 264]", "Peptide exchange (MHC class I binding score, peptide exchange yield)": "++++ (>=75% = ++++)"}
{"substance": "196 (GYIRGSWQF; listed as Homo sapiens) [compound 196]", "Peptide exchange (MHC class I binding score, peptide exchange yield)": "++++ (>=75% = ++++)"}
{"substance": "217 (IYISNSIYF; listed as Homo sapiens) [compound 217]", "Peptide exchange (MHC class I binding score, peptide exchange yield)": "++++ (>=75% = ++++)"}
{"substance": "109 (LFITGGQFF; listed as Homo sapiens) [compound 109]", "Peptide exchange (MHC class I binding score, peptide exchange yield)": "++++ (>=75% = ++++)"}
{"substance": "296 (SYQVIFQHF; listed as Homo sapiens) [compound 296]", "Peptide exchange (MHC class I binding score, peptide exchange yield)": "++++ (>=75% = ++++)"}
{"substance": "272 (RYVFPLPYL; listed as Homo sapiens) [compound 272]", "Peptide exchange (MHC class I binding score, peptide exchange yield)": "++++ (>=75% = ++++)"}
{"substance": "274 (KQLDIANYELF; listed as Homo sapiens) [compound 274]", "Peptide exchange (MHC class I binding score, peptide exchange yield)": "++++ (>=75% = ++++)"}
{"substance": "293 (VYPHFSTTNLI; listed as Homo sapiens) [compound 293]", "Peptide exchange (MHC class I binding score, peptide exchange yield)": "++++ (>=75% = ++++)"}
{"substance": "140 (RYLINSYDF; listed as Homo sapiens) [compound 140]", "Peptide exchange (MHC class I binding score, peptide exchange yield)": "++++ (>=75% = ++++)"}
{"substance": "99 (QYILAVPVL; listed as Homo sapiens) [compound 99]", "Peptide exchange (MHC class I binding score, peptide exchange yield)": "++++ (>=75% = ++++)"}
{"substance": "185 (QYLVHVNDL; listed as Homo sapiens) [compound 185]", "Peptide exchange (MHC class I binding score, peptide exchange yield)": "++++ (>=75% = ++++)"}
{"substance": "209 (AFIETPIPLF; listed as Homo sapiens) [compound 209]", "Peptide exchange (MHC class I binding score, peptide exchange yield)": "++++ (>=75% = ++++)"}
{"substance": "208 (TYLEKIDGF; listed as Homo sapiens) [compound 208]", "Peptide exchange (MHC class I binding score, peptide exchange yield)": "++++ (>=75% = ++++)"}
{"substance": "182 (AYAQLGYLLF; listed as Homo sapiens) [compound 182]", "Peptide exchange (MHC class I binding score, peptide exchange yield)": "++++ (>=75% = ++++)"}
{"substance": "275 (KYGTLDVTF; listed as Homo sapiens) [compound 275]", "Peptide exchange (MHC class I binding score, peptide exchange yield)": "++++ (>=75% = ++++)"}
{"substance": "290 (KYGDFKLLEF; listed as Homo sapiens) [compound 290]", "Peptide exchange (MHC class I binding score, peptide exchange yield)": "++++ (>=75% = ++++)"}
{"substance": "379 (VFIAQGYTL; listed as Homo sapiens) [compound 379]", "Peptide exchange (MHC class I binding score, peptide exchange yield)": "++++ (>=75% = ++++)"}
{"substance": "154 (VYGVPTPHF; listed as Homo sapiens) [compound 154]", "Peptide exchange (MHC class I binding score, peptide exchange yield)": "++++ (>=75% = ++++)"}
{"substance": "231 (AFADVSVKF; listed as Homo sapiens) [compound 231]", "Peptide exchange (MHC class I binding score, peptide exchange yield)": "++++ (>=75% = ++++)"}
{"substance": "173 (QYLEKYYNL; listed as Homo sapiens) [compound 173]", "Peptide exchange (MHC class I binding score, peptide exchange yield)": "++++ (>=75% = ++++)"}
{"substance": "187 (AYAANVHYL; listed as Homo sapiens) [compound 187]", "Peptide exchange (MHC class I binding score, peptide exchange yield)": "++++ (>=75% = ++++)"}
{"substance": "286 (SYGTILSHI; listed as Homo sapiens) [compound 286]", "Peptide exchange (MHC class I binding score, peptide exchange yield)": "++++ (>=75% = ++++)"}
{"substance": "211 (VFKSEGAYF; listed as Homo sapiens) [compound 211]", "Peptide exchange (MHC class I binding score, peptide exchange yield)": "++++ (>=75% = ++++)"}
{"substance": "319 (KYSDVKNLI; listed as Homo sapiens) [compound 319]", "Peptide exchange (MHC class I binding score, peptide exchange yield)": "++++ (>=75% = ++++)"}
{"substance": "298 (AYKSEVVYF; listed as Homo sapiens) [compound 298]", "Peptide exchange (MHC class I binding score, peptide exchange yield)": "++++ (>=75% = ++++)"}
{"substance": "249 (RYHPTTCTI; listed as Homo sapiens) [compound 249]", "Peptide exchange (MHC class I binding score, peptide exchange yield)": "++++ (>=75% = ++++)"}
{"substance": "260 (VYMNVMTRL; listed as Homo sapiens) [compound 260]", "Peptide exchange (MHC class I binding score, peptide exchange yield)": "++++ (>=75% = ++++)"}
{"substance": "144 (VFASLPGFLF; listed as Homo sapiens) [compound 144]", "Peptide exchange (MHC class I binding score, peptide exchange yield)": "++++ (>=75% = ++++)"}
{"substance": "271 (RFLMKSYSF; listed as Homo sapiens) [compound 271]", "Peptide exchange (MHC class I binding score, peptide exchange yield)": "++++ (>=75% = ++++)"}
{"substance": "116 (AYVIAVHLF; listed as Homo sapiens) [compound 116]", "Peptide exchange (MHC class I binding score, peptide exchange yield)": "++++ (>=75% = ++++)"}
